Results: patent US6596863B2, “Medical composition containing nitroetheneamine Derivative or salt there of as active constituent” (Ishihara Sangyo Kaisha, Ltd., priority 1998, dated 2003)
Read-outs that look alike come from different tables or passages of the source.

Columns and labels:
[1] = target: T1, human MMP-9 (gelatinase B) (Homo sapiens, UniProt P14780); assay: Inhibition activity against human MMP-9 (gelatinase B), fluorescent peptide substrate; assay type: biochemical; conditions: compounds of the formula (I)
T1 construct: endogenous in cells; host or cells: HT1080 human fibrosarcoma cells (ATCC CCL-121), PMA-stimulated; enzyme purified from the culture supernatant
T1 sequence (P14780 107-707 limits assumed): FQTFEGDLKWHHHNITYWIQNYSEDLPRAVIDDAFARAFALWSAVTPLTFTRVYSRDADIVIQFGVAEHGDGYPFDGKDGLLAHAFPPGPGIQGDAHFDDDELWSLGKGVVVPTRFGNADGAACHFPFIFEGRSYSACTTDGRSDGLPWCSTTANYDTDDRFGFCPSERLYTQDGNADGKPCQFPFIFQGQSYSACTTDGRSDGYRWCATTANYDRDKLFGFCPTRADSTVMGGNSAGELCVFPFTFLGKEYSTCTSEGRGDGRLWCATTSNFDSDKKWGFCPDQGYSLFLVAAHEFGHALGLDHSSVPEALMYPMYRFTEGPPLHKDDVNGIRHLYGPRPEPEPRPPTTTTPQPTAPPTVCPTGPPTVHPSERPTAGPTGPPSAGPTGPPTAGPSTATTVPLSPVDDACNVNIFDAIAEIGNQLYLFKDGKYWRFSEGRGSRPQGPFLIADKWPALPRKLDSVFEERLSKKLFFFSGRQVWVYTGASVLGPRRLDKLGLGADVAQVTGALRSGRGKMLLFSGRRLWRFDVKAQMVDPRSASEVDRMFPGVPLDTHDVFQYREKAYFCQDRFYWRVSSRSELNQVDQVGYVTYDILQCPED
Experimental: Human MMP-9 (gelatinase B) was purified by the following method from a culture supernatant of HT1080 cells (human fibrosarcoma).
2.5×10^6 HT1080 cells (ATCC CCL-121, purchased from Dainippon Seiyaku) were inoculated to a tissue culture dish (Code No. 3020-100, manufactured by Iwaki Glass Co., Ltd.) having a diameter of 10 cm and containing 10 ml of Dulbecco's Modified Eagle Medium (DME, No. D-5648, manufactured by Sigma Co.) containing 10% fetal bovine serum (FBS: REHATUIN™, Code No. 1020-90, manufactured by Intergen Co.) and cultured for 72 hours at 37° C. in an atmosphere comprising 5% of CO2 and 95% of air (Carbon Dioxide Incubator LNA-122D Model, manufactured by Tabai Co.). Then, the medium was changed to 10 ml of a DME culture medium containing no FBS, and phorbol 12-myristate 13-acetate (PMA, code No. 163-114851, manufactured by Wako Pure Chemical Industries, Ltd.) was added so that the final concentration became 10 ng/ml. Under the same conditions, the culturing was carried out for further 20 hours, whereupon the culture supernatant was collected and subjected to cool centrifugation at 4° C. for 5 minutes (cool centrifugal separator, manufactured by Hitachi) to remove cell fragments.
The pH of a conditioned medium (50 ml) containing MMP-9, thus prepared, was adjusted to 8.0 with 0.2N NaOH. […] Namely, the above-mentioned conditioned medium was passed through DEAE-Sephacel (manufactured by Pharmacia, gel volume: about 35 ml) preliminarily equilibrated with 50 mM Tris-HCl, pH 8.0 (A buffer), and a non-adsorption fraction was collected. Then, it was added to Dye Matrix Gel Green A (manufactured by Amicon Co., gel volume: about 6 ml) preliminarily equilibrated with 50 mM Tris-HCl, pH 7.5/10 MM CaCl2/0.05% Brij 35/0.02% NaN3 (B buffer) and thoroughly washed with the same buffer, whereupon the adsorbed enzyme was eluted with a 1M NaCl-containing B buffer. About 7.5 ml of the eluted fraction was diluted twice with the B buffer and added to Gelatin-Sepharose 4B (manufactured by Pharmacia, gel volume: about 6 ml) preliminarily equilibrated with a 0.5 M NaCl-containing B buffer. It was thoroughly washed with a 0.5M NaCl-containing B buffer, and eluted with the B buffer containing 10% of dimethylsulfoxide (DMSO) and 0.5 M of NaCl. 5.5 ml of the eluted fraction was dialyzed against a 0.1 M NaCl-containing B buffer to obtain 5.2 ml of a purified enzyme solution. The purified MMP-9 standard product was confirmed to have a single band of 92 kDa by a protein staining by SDS electrophoresis, and further, it was confirmed to have an adequate gelatin decomposing activity by gelatinzymography (carried out in accordance with a method by Howard E. W. et al; Journal Biological Chemistry, Vol. 266, 13064-13069, 1991) and to have an adequate substrate decomposing activity by the after-mentioned measurement employing a fluorescent peptide substrate specific to MMP.
The inhibition activity against human MMP-9 was measured by the following method in accordance with the method by C. G. Knight et al (FEBS Letters, Vol, 296, 263-266, 1992) employing a fluorescent peptide substrate (7-methoxycoumarin-4-yl)Acetyl-Pro-Leu-Gly-Leu-(3-[2,4-dinitrophenyl]—Ala—Arg-NH2, Code 3163-VC, manufactured by Peptide Institute, Inc.
Further, as the case requires, commercially available human MMP-9 purified enzyme (No. YU-18003, manufactured by Kabushiki Kaisha Yagai Chuo Kenkyusho; used in a final concentration of from 0.0125 to 0.025 unit/ml, No. CC079, manufactured by Chemicon International, Inc.; used in a final concentration of 0.2 μg/ml) was used for the tests. […]

[2] = 1st measurement, read-out: MMP-9 inhibition activities IC50, 1st
[3] = 2nd measurement, read-out: MMP-9 inhibition activities IC50, 2nd
[4] = average of 1st and 2nd (or single measurement), read-out: MMP-9 inhibition activities IC50, Average

NNC(=C[N+](=O)[O-])NN1CCOCC1 [compound 67]
IC50 [1, 2]: 56.9 µM
IC50 [1, 3]: 43.1 µM
IC50 [1, 4]: 50 µM
melting point: 187 °C (dec.)

CCOc1ccc(NC(=C[N+](=O)[O-])NN)cc1 [compound 70]
IC50 [1, 2]: 42.1 µM
IC50 [1, 3]: 57.1 µM
IC50 [1, 4]: 49.6 µM
melting point: 198 °C (dec.)

CCCOc1ccc(NC(=C[N+](=O)[O-])NN)cc1 [compound 71]
IC50 [1, 2]: 42.9 µM
IC50 [1, 3]: 37.4 µM
IC50 [1, 4]: 40.2 µM
melting point: 179 °C (dec.)

CSc1ccc(NC(=C[N+](=O)[O-])NN)cc1 [compound 72]
IC50 [1, 2]: 40.8 µM
IC50 [1, 3]: 41.5 µM
IC50 [1, 4]: 41.2 µM
melting point: 177 °C (dec.)

CCOC(=O)Cc1ccc(NC(=C[N+](=O)[O-])NN)cc1 [compound 73]
IC50 [1, 2]: 44.6 µM
IC50 [1, 3]: 47.9 µM
IC50 [1, 4]: 46.3 µM
melting point: 68 to 70 °C

CCOC(=O)c1ccc(NC(=C[N+](=O)[O-])NN)cc1 [compound 74]
IC50 [1, 2]: 49.6 µM
IC50 [1, 3]: 49.4 µM
IC50 [1, 4]: 49.5 µM
melting point: 155 °C (dec.)

NNC(=C[N+](=O)[O-])Nc1ccc(O)cc1 [compound 76]
IC50 [1, 2]: 34 µM
IC50 [1, 3]: 33.8 µM
IC50 [1, 4]: 33.9 µM
melting point: 190 °C (dec.)

NNC(=C[N+](=O)[O-])NCc1cccc(C(F)(F)F)c1 [compound 77]
IC50 [1, 2]: 41.4 µM
IC50 [1, 3]: 35.2 µM
IC50 [1, 4]: 38.3 µM
melting point: 155 °C

NNC(=C[N+](=O)[O-])NCc1ccc(C(F)(F)F)cc1 [compound 78]
IC50 [1, 2]: 44.1 µM
IC50 [1, 3]: 36 µM
IC50 [1, 4]: 40.1 µM
melting point: 162 °C

NNC(=C[N+](=O)[O-])NCc1ccccn1 [compound 79]
IC50 [1, 2]: 39 µM
IC50 [1, 3]: 36.6 µM
IC50 [1, 4]: 37.8 µM
melting point: 190 °C (dec.)

NNC(=C[N+](=O)[O-])NC1CCCCC1 [compound 86]
IC50 [1, 2]: 41.8 µM
IC50 [1, 3]: 41.5 µM
IC50 [1, 4]: 41.7 µM
melting point: 196 °C (dec.)

NNC(=C[N+](=O)[O-])Nc1ccccc1 [compound 87]
IC50 [1, 2]: 20.5 µM
IC50 [1, 3]: 25.3 µM
IC50 [1, 4]: 22.9 µM
melting point: 153 °C (dec.)

NNC(=C[N+](=O)[O-])NC1CC1 [compound 90]
IC50 [1, 2]: 18.7 µM
IC50 [1, 3]: 37.4 µM
IC50 [1, 4]: 28 µM
melting point: 145 °C (dec.)

NNC(=C[N+](=O)[O-])NC1CCCC1 [compound 91]
IC50 [1, 2]: 20 µM
IC50 [1, 3]: 35.7 µM
IC50 [1, 4]: 27.9 µM
melting point: 192 °C (dec.)

NNC(=C[N+](=O)[O-])NCc1ccccc1 [compound 92]
IC50 [1, 2]: 15.4 µM
IC50 [1, 3]: 20.6 µM
IC50 [1, 4]: 18 µM
melting point: 140 to 143 °C

CNC(=C[N+](=O)[O-])NNc1cc(C(F)(F)F)ccn1 [compound 94]
IC50 [1, 2]: 4.2 µM
IC50 [1, 3]: 7 µM
IC50 [1, 4]: 5.6 µM
melting point: 174 to 175 °C (dec.)

CNC(=C[N+](=O)[O-])NNc1ccc(OC(F)(F)F)cc1 [compound 95]
IC50 [1, 2]: 26.7 µM
IC50 [1, 3]: 27 µM
IC50 [1, 4]: 26.9 µM
melting point: 176 to 177 °C (dec.)

CNC(=C[N+](=O)[O-])NNc1ncc(C(F)(F)F)cc1[N+](=O)[O-] [compound 96]
IC50 [1, 2]: 24.5 µM
IC50 [1, 3]: 21.3 µM
IC50 [1, 4]: 22.9 µM
melting point: 165 to 167 °C (dec.)

CNC(=C[N+](=O)[O-])NNc1cc(C(F)(F)F)nc(C(F)(F)F)c1 [compound 99]
IC50 [1, 2]: 20.5 µM
IC50 [1, 3]: 30 µM
IC50 [1, 4]: 25.3 µM
melting point: 180 to 181 °C (dec.)

CNC(=C[N+](=O)[O-])NNc1cc(OC)nc(OC)n1 [compound 101]
IC50 [1, 2]: 37.8 µM
IC50 [1, 3]: 18.5 µM
IC50 [1, 4]: 28.2 µM
melting point: 160 to 162 °C (dec.)

CCNC(=C[N+](=O)[O-])NNc1cc(C(F)(F)F)cc(Cl)n1 [compound 102]
IC50 [1, 2]: 18.2 µM
IC50 [1, 3]: 14 µM
IC50 [1, 4]: 16.1 µM
melting point: 206 °C (dec.)

NC(=C[N+](=O)[O-])NNc1cc(C(F)(F)F)cc(Cl)n1 [compound 103]
IC50 [1, 2]: 8.9 µM
IC50 [1, 3]: 10.7 µM
IC50 [1, 4]: 9.8 µM
melting point: 201 to 202 °C (dec.)

CNC(=C[N+](=O)[O-])NNc1nc(OC)nc(OC)n1 [compound 104]
IC50 [1, 2]: 21.1 µM
IC50 [1, 3]: 17.5 µM
IC50 [1, 4]: 19.3 µM
melting point: 202 to 203 °C (dec.)

CNC(=C[N+](=O)[O-])NNc1nc(OC)cc(OC)n1 [compound 105]
IC50 [1, 2]: 14.2 µM
IC50 [1, 3]: 17 µM
IC50 [1, 4]: 15.6 µM
melting point: 166 to 167 °C (dec.)

CCOc1cc(C(F)(F)F)cc(NNC(=C[N+](=O)[O-])NC)n1 [compound 106]
IC50 [1, 2]: 11.7 µM
IC50 [1, 3]: 8.4 µM
IC50 [1, 4]: 10.1 µM
melting point: 185 to 186 °C (dec.)

CNC(=C[N+](=O)[O-])NNS(=O)(=O)c1ccccc1 [compound 109]
IC50 [1, 2]: 20.8 µM
IC50 [1, 3]: 26.9 µM
IC50 [1, 4]: 23.9 µM
melting point: 169 to 170 °C (dec.)

NNC(=C[N+](=O)[O-])Nc1ccc2c(c1)OCO2 [compound 110]
IC50 [1, 2]: 35.2 µM
IC50 [1, 3]: 29.3 µM
IC50 [1, 4]: 32.3 µM
melting point: 177 to 180 °C (dec.)

Cc1nn(C)c(C)c1NC(=C[N+](=O)[O-])NN [compound 111]
IC50 [1, 2]: 45.5 µM
IC50 [1, 3]: 26.8 µM
IC50 [1, 4]: 36.2 µM
melting point: 210 to 214 °C (dec.)

NNC(=C[N+](=O)[O-])NC1Cc2ccccc2C1 [compound 112]
IC50 [1, 2]: 38.2 µM
IC50 [1, 3]: 30.9 µM
IC50 [1, 4]: 34.6 µM
melting point: 193 to 197 °C (dec.)

COc1ccc(NC(=C[N+](=O)[O-])NN)cn1 [compound 115]
IC50 [1, 2]: 31.8 µM
IC50 [1, 3]: 26.5 µM
IC50 [1, 4]: 29.2 µM
melting point: 162 to 165 °C

CCNC(=C[N+](=O)[O-])NN [compound 117]
IC50 [1, 2]: 30 µM
IC50 [1, 3]: 39.3 µM
IC50 [1, 4]: 34.7 µM
melting point: 93.5 to 98.5 °C

CNC(=C[N+](=O)[O-])NNc1cc(C(F)(F)F)cc(OCCCc2ccccn2)n1 [compound 118]
IC50 [1, 2]: 32.3 µM
IC50 [1, 3]: 35.1 µM
IC50 [1, 4]: 33.7 µM
melting point: 169 °C (dec.)

CNC(=C[N+](=O)[O-])NNc1cc(C(F)(F)F)cc(OCCCc2cccnc2)n1 [compound 119]
IC50 [1, 2]: 28 µM
IC50 [1, 3]: 23.4 µM
IC50 [1, 4]: 25.7 µM
melting point: 149 °C (dec.)

CNC(=C[N+](=O)[O-])NNc1cc(C(F)(F)F)cc(OCc2ccco2)n1 [compound 120]
IC50 [1, 2]: 39.8 µM
IC50 [1, 3]: 39.4 µM
IC50 [1, 4]: 39.6 µM
melting point: 154 °C (dec.)

CNC(=C[N+](=O)[O-])NNc1cc(C(F)(F)F)cc(OCc2ccccn2)n1 [compound 122]
IC50 [1, 2]: 12.6 µM
IC50 [1, 3]: 16.3 µM
IC50 [1, 4]: 14.5 µM
melting point: 170 °C (dec.)

CNC(=C[N+](=O)[O-])NNc1cc(C(F)(F)F)cc(OCc2cccnc2)n1 [compound 123]
IC50 [1, 2]: 13.9 µM
IC50 [1, 3]: 12.4 µM
IC50 [1, 4]: 13.2 µM
melting point: 131 °C (dec.)

CNC(=C[N+](=O)[O-])NNc1cc(C(F)(F)F)cc(OCCc2ccccn2)n1 [compound 124]
IC50 [1, 2]: 16.1 µM
IC50 [1, 3]: 18.6 µM
IC50 [1, 4]: 17.4 µM
melting point: 181 °C (dec.)
